Assay: Assay (I): Determination of Solubility (96-well plate, pH 3.0-11.0, organic solvent 0-70% w/w, UV absorption at 280 nm)
Assay type: physicochemical
Settings: Method 1
Experimental: Assay (I): Determination of Solubility
96-Well Plate Preparation
96-well plates containing target peptide in a solid form were prepared in one of two ways:
Method 1 (evaporation): Addition of 100 μl stock solution of said peptide at a concentration of 4-6 mg/ml to each well of a 96-well half area plate (150 μl well size). Subsequently the solvent was evaporated by applying a vacuum until the solvent was completely removed.
Method 2 (precipitation): Addition of a certain volume of a stock solution of said peptide containing to each well of a 96-well half area plate followed by the addition of a certain volume of concentrated phosphoric acid to obtain a pH of 4.6 followed by addition of a certain volume of ethanol resulting in a final ethanol concentration of 20% v/v. Subsequently the plate was stored at 4° C. for 1 h and then centrifuged at 4,000 rpm for 20 min. Finally the supernatant was removed. The concentration of the stock solution was chosen in a way that the final amount of peptide after supernatant removal was >0.4 mg per well.
In both cases the stock solution was prepared by adding de-ionized water to a certain amount of powder of said peptide followed by a stepwise addition of small amounts of a concentrated sodium hydroxide solution until said peptide was completely in solution.
To determine solubility of a target peptide at different pH and organic solvent concentrations, two different buffer systems were used in independent experiments to cover the whole range from pH 3.0 to pH 11.0. Buffer system 1 covers pH 3.0-7.5 and buffer system 2 covers pH 7.5-11.0. For each buffer system 96 different solvent compositions were premixed in the following way: • 1. A low pH buffer (adjusted to either pH 3.0 or pH 7.5) and a high pH buffer (adjusted to either pH 7.5 or pH 11.0) were mixed at 8 different ratios to obtain values between pH 3.0 and pH 7.5 or pH 7.5 and pH 11.0, respectively. The total volume after mixing was 300 μl. • 2. 12 different amounts of organic solvent were then added to these buffers to obtain organic solvent (e.g. ethanol) concentrations between 0 and 70% w/w. • 3. Water was then added to obtain a total weight of 1.0 g of solvent in each well.
After preparing the 96 different solvent systems, 100 μl of each system was transferred to the 96-well plate containing the solid form of the target peptide (prepared as described in the section “96-well plate preparation”). The plate was then stored at a given temperature (between 5° C. and 70° C.) for a given time on a rotating shaker set to 400 rpm. At regular time intervals the plate was centrifuged (4,000 rpm for 10 min) and a 10 μl sample was taken from each well. The samples were then analysed by UV absorption at 280 nm for peptide quantification. Peptide concentration results are given as UV absorption at 280 nm of the sample subtracted UV absorption at 280 nm of a well comprising 10 μl water.
The buffers used were as follows: • Buffer system 1 (for the pH range from pH 3.0-7.5)
• Buffer system 2 (for the pH ranae from pH 7.5-11.0)
Solubility of liraglutide was determined using Assay (I) described herein. Liraglutide was prepared using Method 1 (evaporation) or Method 2 (precipitation) as described in subsection “96-well plate preparation”.

CCCCCCCCCCCCCCCC(=O)N[C@@H](CCC(=O)NCCCC[C@H](NC(=O)[C@H](C)NC(=O)[C@H](C)NC(=O)[C@H](CCC(N)=O)NC(=O)CNC(=O)[C@H](CCC(=O)O)NC(=O)[C@H](CC(C)C)NC(=O)[C@H](Cc1ccc(O)cc1)NC(=O)[C@H](CO)NC(=O)[C@H](CO)NC(=O)[C@@H](NC(=O)[C@H](CC(=O)O)NC(=O)[C@H](CO)NC(=O)[C@@H](NC(=O)[C@H](Cc1ccccc1)NC(=O)[C@@H](NC(=O)CNC(=O)[C@H](CCC(=O)O)NC(=O)[C@H](C)NC(=O)[C@@H](N)Cc1cnc[nH]1)[C@@H](C)O)[C@@H](C)O)C(C)C)C(=O)N[C@@H](CCC(=O)O)C(=O)N[C@@H](Cc1ccccc1)C(=O)N[C@H](C(=O)N[C@@H](C)C(=O)N[C@@H](Cc1c[nH]c2ccccc12)C(=O)N[C@@H](CC(C)C)C(=O)N[C@H](C(=O)N[C@@H](CCCNC(=N)N)C(=O)NCC(=O)N[C@@H](CCCNC(=N)N)C(=O)NCC(=O)O)C(C)C)[C@@H](C)CC)C(=O)O [liraglutide, Arg34,Lys26-(N-epsilon-(gamma-L-glutamyl(N-alfa-hexadecanoyl)))-GLP-1(7-37)]
0.2 mg/mL: Peptide concentration after 5 min (MeCN 0.0% w/w, pH 4.9, 5° C.) | Peptide concentration after 5 min (MeCN 0.0% w/w, pH 11.0, 5° C.) | Peptide concentration after 180 min (MeCN 6.4% w/w, pH 3.0, 5° C.) | Peptide concentration after 24 h (MeCN 6.4% w/w, pH 3.6, 5° C.) | Peptide concentration after 24 h (MeCN 6.4% w/w, pH 4.3, 5° C.)
1.3 mg/mL: Peptide concentration after 5 min (MeCN 12.7% w/w, pH 8.0, 5° C.)
1.6 mg/mL: Peptide concentration after 180 min (MeCN 0.0% w/w, pH 11.0, 5° C.)
2.7 mg/mL: Peptide concentration after 180 min (MeCN 19.1% w/w, pH 8.0, 5° C.)
0.4 mg/mL: Peptide concentration after 5 min (MeCN 0.0% w/w, pH 6.9, 5° C.) | Peptide concentration after 5 min (MeCN 0.0% w/w, pH 9.5, 5° C.) | Peptide concentration after 5 min (MeCN 0.0% w/w, pH 10.0, 5° C.)
1.5 mg/mL: Peptide concentration after 180 min (MeCN 12.7% w/w, pH 11.0, 5° C.)
2.2 mg/mL: Peptide concentration after 180 min (MeCN 6.4% w/w, pH 8.0, 5° C.) | Peptide concentration after 180 min (MeCN 12.7% w/w, pH 8.0, 5° C.)
0.6 mg/mL: Peptide concentration after 5 min (MeCN 0.0% w/w, pH 7.5, 5° C.) | Peptide concentration after 5 min (MeCN 6.4% w/w, pH 9.5, 5° C.) | Peptide concentration after 5 min (MeCN 12.7% w/w, pH 11.0, 5° C.)
1.7 mg/mL: Peptide concentration after 180 min (MeCN 6.4% w/w, pH 11.0, 5° C.)
>4.0 mg/mL: Peptide concentration after 24 h (MeCN 0.0% w/w, pH 6.9, 5° C.) | Peptide concentration after 24 h (MeCN 0.0% w/w, pH 6.9, RT) | Peptide concentration after 24 h (MeCN 0.0% w/w, pH 7.5, 5° C.) | Peptide concentration after 24 h (MeCN 0.0% w/w, pH 7.5, RT) | Peptide concentration after 24 h (MeCN 0.0% w/w, pH 8.0, 5° C.) | Peptide concentration after 24 h (MeCN 0.0% w/w, pH 8.5, 5° C.) | Peptide concentration after 24 h (MeCN 0.0% w/w, pH 9.0, 5° C.) | Peptide concentration after 24 h (MeCN 0.0% w/w, pH 9.5, 5° C.) | Peptide concentration after 24 h (MeCN 0.0% w/w, pH 10.0, 5° C.) | Peptide concentration after 24 h (MeCN 0.0% w/w, pH 10.5, 5° C.) | Peptide concentration after 24 h (MeCN 0.0% w/w, pH 11.0, 5° C.) | Peptide concentration after 24 h (MeCN 6.4% w/w, pH 8.0, 5° C.) | Peptide concentration after 24 h (MeCN 6.4% w/w, pH 8.5, 5° C.) | Peptide concentration after 24 h (MeCN 6.4% w/w, pH 9.0, 5° C.) | Peptide concentration after 24 h (MeCN 6.4% w/w, pH 9.5, 5° C.) | Peptide concentration after 24 h (MeCN 6.4% w/w, pH 10.0, 5° C.) | Peptide concentration after 24 h (MeCN 6.4% w/w, pH 10.5, 5° C.) | Peptide concentration after 24 h (MeCN 6.4% w/w, pH 11.0, 5° C.) | Peptide concentration after 24 h (MeCN 12.7% w/w, pH 8.0, 5° C.) | Peptide concentration after 24 h (MeCN 12.7% w/w, pH 8.5, 5° C.) | Peptide concentration after 24 h (MeCN 12.7% w/w, pH 9.0, 5° C.) | Peptide concentration after 24 h (MeCN 12.7% w/w, pH 9.5, 5° C.) | Peptide concentration after 24 h (MeCN 12.7% w/w, pH 10.0, 5° C.) | Peptide concentration after 24 h (MeCN 12.7% w/w, pH 10.5, 5° C.) | Peptide concentration after 24 h (MeCN 12.7% w/w, pH 11.0, 5° C.) | Peptide concentration after 24 h (MeCN 19.1% w/w, pH 8.0, 5° C.)
0.7 mg/mL: Peptide concentration after 5 min (MeCN 6.4% w/w, pH 10.5, 5° C.) | Peptide concentration after 5 min (MeCN 6.4% w/w, pH 11.0, 5° C.)
1.1 mg/mL: Peptide concentration after 5 min (MeCN 12.7% w/w, pH 10.5, 5° C.)
2.1 mg/mL: Peptide concentration after 180 min (MeCN 0.0% w/w, pH 8.0, 5° C.) | Peptide concentration after 180 min (MeCN 12.7% w/w, pH 8.5, 5° C.) | Peptide concentration after 180 min (MeCN 12.7% w/w, pH 10.5, 5° C.)
0.0 mg/mL: Peptide concentration after 24 h (MeCN 0.0% w/w, pH 4.3, RT) | Peptide concentration after 24 h (MeCN 0.0% w/w, pH 5.6, RT)
2.6 mg/mL: Peptide concentration after 180 min (MeCN 0.0% w/w, pH 7.5, 5° C.) | Peptide concentration after 180 min (MeCN 0.0% w/w, pH 9.5, 5° C.) | Peptide concentration after 180 min (MeCN 6.4% w/w, pH 8.5, 5° C.) | Peptide concentration after 180 min (MeCN 6.4% w/w, pH 10.5, 5° C.)
2.5 mg/mL: Peptide concentration after 180 min (MeCN 6.4% w/w, pH 9.5, 5° C.)
0.1 mg/mL: Peptide concentration after 5 min (MeCN 0.0% w/w, pH 3.0, RT) | Peptide concentration after 180 min (MeCN 0.0% w/w, pH 3.0, RT) | Peptide concentration after 5 min (MeCN 0.0% w/w, pH 3.6, RT) | Peptide concentration after 180 min (MeCN 0.0% w/w, pH 3.6, RT) | Peptide concentration after 5 min (MeCN 0.0% w/w, pH 4.3, 5° C.) | Peptide concentration after 180 min (MeCN 0.0% w/w, pH 4.3, 5° C.) | Peptide concentration after 5 min (MeCN 0.0% w/w, pH 4.3, RT) | Peptide concentration after 180 min (MeCN 0.0% w/w, pH 4.3, RT) | Peptide concentration after 180 min (MeCN 0.0% w/w, pH 4.9, 5° C.) | Peptide concentration after 5 min (MeCN 0.0% w/w, pH 5.6, 5° C.) | Peptide concentration after 180 min (MeCN 0.0% w/w, pH 5.6, 5° C.) | Peptide concentration after 24 h (MeCN 0.0% w/w, pH 5.6, 5° C.) | Peptide concentration after 5 min (MeCN 0.0% w/w, pH 6.2, 5° C.) | Peptide concentration after 180 min (MeCN 0.0% w/w, pH 6.2, 5° C.) | Peptide concentration after 5 min (MeCN 6.4% w/w, pH 3.0, 5° C.) | Peptide concentration after 24 h (MeCN 6.4% w/w, pH 3.0, RT) | Peptide concentration after 5 min (MeCN 6.4% w/w, pH 3.6, 5° C.) | Peptide concentration after 180 min (MeCN 6.4% w/w, pH 3.6, 5° C.) | Peptide concentration after 24 h (MeCN 6.4% w/w, pH 3.6, RT) | Peptide concentration after 5 min (MeCN 6.4% w/w, pH 4.3, 5° C.) | Peptide concentration after 180 min (MeCN 6.4% w/w, pH 4.3, 5° C.)
1.9 mg/mL: Peptide concentration after 180 min (MeCN 12.7% w/w, pH 9.5, 5° C.)
0.9 mg/mL: Peptide concentration after 5 min (MeCN 12.7% w/w, pH 9.5, 5° C.)
2.9 mg/mL: Peptide concentration after 180 min (MeCN 0.0% w/w, pH 8.5, 5° C.) | Peptide concentration after 180 min (MeCN 0.0% w/w, pH 10.5, 5° C.) | Peptide concentration after 180 min (MeCN 6.4% w/w, pH 9.0, 5° C.)
2.0 mg/mL: Peptide concentration after 180 min (MeCN 0.0% w/w, pH 6.9, 5° C.)
3.1 mg/mL: Peptide concentration after 180 min (MeCN 0.0% w/w, pH 10.0, 5° C.) | Peptide concentration after 180 min (MeCN 6.4% w/w, pH 10.0, 5° C.)
0.3 mg/mL: Peptide concentration after 5 min (MeCN 0.0% w/w, pH 8.5, 5° C.) | Peptide concentration after 5 min (MeCN 0.0% w/w, pH 9.0, 5° C.) | Peptide concentration after 24 h (MeCN 6.4% w/w, pH 3.0, 5° C.)
0.8 mg/mL: Peptide concentration after 5 min (MeCN 6.4% w/w, pH 8.0, 5° C.) | Peptide concentration after 5 min (MeCN 6.4% w/w, pH 8.5, 5° C.) | Peptide concentration after 5 min (MeCN 12.7% w/w, pH 8.5, 5° C.) | Peptide concentration after 5 min (MeCN 12.7% w/w, pH 9.0, 5° C.) | Peptide concentration after 5 min (MeCN 12.7% w/w, pH 10.0, 5° C.)
0.5 mg/mL: Peptide concentration after 5 min (MeCN 0.0% w/w, pH 8.0, 5° C.) | Peptide concentration after 5 min (MeCN 0.0% w/w, pH 10.5, 5° C.)
1.0 mg/mL: Peptide concentration after 5 min (MeCN 6.4% w/w, pH 9.0, 5° C.) | Peptide concentration after 5 min (MeCN 6.4% w/w, pH 10.0, 5° C.) | Peptide concentration after 5 min (MeCN 19.1% w/w, pH 8.0, 5° C.)
1.8 mg/mL: Peptide concentration after 180 min (MeCN 12.7% w/w, pH 9.0, 5° C.)
2.3 mg/mL: Peptide concentration after 180 min (MeCN 12.7% w/w, pH 10.0, 5° C.)
2.8 mg/mL: Peptide concentration after 180 min (MeCN 0.0% w/w, pH 9.0, 5° C.)
